Values of other authors, collected in US20230330230A1, “SENSITISER FOR CANCER TREATMENT” (KORTUC INC, priority 2020, published 2023).

Key:
[1] = system: osteosarcoma (HS-Os-1) cell line
[2] = system: prostate cancer (PC-3) cell line
[3] = 0.1 mM H2O2 prior to IR, without DNA double strand breaks

OO [H2O2, hydrogen peroxide]
response to H2O2 alone [1]: extreme resistance | effect of H2O2 prior to IR [1, 3]: enhanced cytotoxicity | response to H2O2 alone [2]: extreme resistance | effect of H2O2 prior to IR [2, 3]: enhanced cytotoxicity
